Results: patent publication US10947366B2, “Hollow mineral tubes comprising essential oils and uses thereof” (TECHNION RESEARCH & DEVELOPMENT FOUNDATION LTD., priority 2015, dated 2021)
Where two headings read alike, the source gives them in different places.

How the values were obtained:
[1] = at 20° C.-25° C.; cited from earlier work
[2] = EO content in films after melt compounding and processing, determined by TGA; type: physicochemical; details: pure EO in LDPE film without HNTs, initial 4 %
Procedure: (§1) Hybrids were characterized by thermal gravimetric analysis (TGA) using TGA-Q5000 system (TA instruments, USA) at a heating rate of 20° C./min under nitrogen atmosphere, starting at room temperature up to 600° C.
Table 4 below summarizes the carvacrol and HNTs content in different films (following melt compounding and processing) determined by TGA (initial carvacrol content, pre-processing, was 4 wt % and initial HNTs content was 2 wt %).
The resulting films were studied by thermal gravimetric analysis (TGA) in order to examine the effect of the HNTs carriers on the residual carvacrol content following the harsh high-temperature melt-compounding and processing of PA. Table 5 summarizes the results of these experiments showing carvacrol content in different carvacrol-containing films, determined by TGA.
The EOs content and distribution within the LDPE matrix are important parameters, crucial in determining the mechanical and antimicrobial performance of the nanocomposite systems (R. Shemesh et al., 2015). Thus, the total volatile content within the LDPE-based films was investigated using TGA, and the results are summarized in Table 14 showing carvacrol and thymol concentrations in different LDPE-based films as determined by TGA and FTIR spectroscopy.

E. coli (ATCC 8739) = assay: Chequerboard antimicrobial susceptibility to pure carvacrol, thymol and their combinations; type: cell-based; details: Escherichia coli, ATCC8739
Procedure: Bacterial susceptibility to pure carvacrol, thymol and their mixtures was characterized by the standard chequerboard procedure for antimicrobial susceptibility for combination of antimicrobials (Franzot & Casadevall, 1997; Pei, Zhou, Ji, & Xu, 2009).
Accordingly, in exemplary procedures, stock aqueous emulsions of thymol and carvacrol (at a concentration of 6400 mg L^−1 in MillyQ water, […]) are prepared by ultrasonication (Vibra cell VCX 750, Sonics & Materials Inc., USA) for 3 min at a constant amplitude of 40%, on ice bath using small amounts of Tween-80. […] The plate is sealed with SealPlate® (Excel Scientific Inc., Victorville, CV, US) incubated at 37° C. for 4 h under gentle shacking in a microplate reader (Varioskan Flash, Thermo Scientific, USA). Absorbance measurements are recorded at 600 nm every 3 min. […]
The MIC of carvacrol and thymol and their combination against E. coli (ATCC 8739) were determined using the standard chequerboard procedure for antimicrobial susceptibility for combination of antimicrobials (Franzot & Casadevall, 1997; Pei et al., 2009).
FIG. 13A presents characteristic E. coli growth curves in media containing a constant thymol concentration (75 mg L^−1) and varying carvacrol concentrations (0 to 200 mg L^−1). […] While at a lower concentration (100 mg L^−1), a profound lag time of ˜200 min in bacterial growth is recorded. […]

E. coli = assay: Agar diffusion assay (Kirby-Bauer disk diffusion) of LDPE-based films; type: cell-based; details: dose additivity model
Procedure: Fresh LDPE/(HNTs/CV-TY), LDPE/(HNTs/CV) and LDPE/TY films (12 mm in diameter and 150 μm thick) were conditioned at 60° C. for different time intervals to accelerate the release of the EOs from the films. The films were sampled after different durations, and the content of the respective EOs were determined by Fourier-transform infrared spectroscopy in transmission mode. Subsequently, the discs were placed onto the surface of a Luria broth (LB) agar plate seeded with 10^8 CFU ml^−1 of E. coli culture (0.1 mL). […] All tests were performed in triplicates, and at least 15 different specimens are studied for each film type of each. Neat LDPE films were used as a negative control.
Interactions between CV and TY were assessed based on the results obtained by the agar diffusion assay studies. Two common models of synergistic activity are applied:
(1) effect additivity (Axelrad, Howard, & McLean, 2002) and (2) dose additivity (Berenbaum, 1978). […] The second model is based on building curves that illustrate various combinations of two antimicrobials that produce the same effect. Antimicrobial doses of the same efficiency are connected by the additivity line that predicts a zero interaction. Deviations from this prediction can be interpreted as antagonism or synergy. […]

[3] = Thermal gravimetric analysis (TGA) of EOs and HNTs/EO hybrids, thermal stability; type: physicochemical; details: 20° C./min, nitrogen
Procedure: as §1
Thermal gravimetric analysis (TGA) is performed using TGA-Q5000 system (TA Instruments, USA). Samples are heated under nitrogen atmosphere from room temperature to 600° C. at a heating rate of 20° C. min^−1. The results are analyzed using Universal […] version 4.5A build 4.5.0.5 software.

In the case of `CC(C)=CCCC(C)=CC=O` [citral, Citral], the vapor pressure [1] is given as 0.22 mmHg.

In the case of `C=CC(C)(O)CCC=C(C)C` (centres unmarked) [linalool, Linalool], the vapor pressure [1] is listed as 0.17 mmHg.

With `Cc1ccc(C(C)C)c(O)c1` [thymol, Thymol] the “reduction of EO concentration during high-temperature processing” value [2] was 35%, the MIC (E. coli (ATCC 8739); LB medium, 37° C., 4 h, inhibition = lag time above 200 min, read-out: MIC) was 300 µg/mL and the “in-film EO concentration giving 19 mm inhibition zone” value (E. coli) was 1.4%. For the same molecule, the vapor pressure [1] was 0.002 mmHg.

With `Cc1ccc(C(C)C)cc1O` [carvacrol, Carvacrol] the “temperature at which weight loss (evaporation) of the EO is completed” value [3] was “about 165 °C”, the “reduction of EO concentration during high-temperature processing” value [2] was 55% and the MIC (E. coli (ATCC 8739)) was 200 µg/mL. The “in-film EO concentration giving 19 mm inhibition zone” value (E. coli) was 1.5% and the vapor pressure [1] was 0.023 mmHg.
